Assay results as given in patent US20250144178A1, “PHARMACEUTICAL COMPOSITION FOR CANCER TREATMENT COMPRISING FUSION PROTEIN INCLUDING IL-12 AND ANTI-FAP ANTIBODY AND ANTICANCER AGENT” (KANAPH THERAPEUTICS INC., priority 2022, published 2025).

How the values were obtained:
human T cells = test: IFN-γ secretion in human T cells (ELISA); assay type: cell-based; settings: anti-CD3 activated human T cells, 48 hours, FIG. 21
Description: For cytokine measurement, enzyme-linked immunosorbent assay (ELISA, R&D systems) was performed on the supernatant stored at −20° C. in the following steps:
(i) The capture antibody was diluted according to the Certificate of Analysis (CoA) and coated on a 96-well plate for 24 hours.
(ii) The wells were washed with a wash solution, and then blocking was performed for 1 hour with 1% BSA (Bovine serum albumin, Sigma) solution.
(iii) The wells were washed with a wash solution, and then the samples were treated for 2 hours.
(iv) The wells were washed with a wash solution, and then the detection antibody was diluted according to the Certificate of Analysis and aliquoted into the wells, and then the wells were treated therewith for 2 hours.
(v) The wells were washed with a wash solution, and then treated with streptavidin-HRP for 20 minutes.
(vi) The wells were washed with a wash solution, and then treated with a substrate solution for 20 minutes.
(vii) The wells were treated with a stop solution, and the absorbance was measured at 450 nm.
Specifically, the human T cells activated with anti-CD3 (OKT3, Invitrogen) were diluted to 5×10^5 cells/ml and dispensed in a 96-well plate at 200 μl/well. Recombinant human IL-12, T1.12, T1.01, T1.02 and T1.03 were diluted to 10 nM and dispensed at 20 μl/well. […]

[1] = test system: IL-12 receptor of human T cells; test: p-STAT4 signaling ability in human T cells (AlphaLISA); assay type: cell-based; settings: anti-CD3 activated human T cells, 2 hours, FIG. 19; read-out: half maximal effective concentration (EC50), p-STAT4
Description: In order to identify whether when IL-12 binds to the IL-12 receptor of human T cells, IL-12 initiate signaling by inducing phosphorylation of STAT4, a signaling mediator, the human T cells activated with anti-CD3 (OKT3, Invitrogen) were analyzed using the AlphaLISA SureFire Ultra p-STAT4 (Tyr693) Assay Kit (PerkinElmer, Massachusetts, USA).
Specifically, human proteins IL-12, T1.01, T1.02, T1.03 and T1.12 were suspended at 100 ng/ml and diluted by serial dilution. The human T cells activated with anti-CD3 (OKT3, Invitrogen) were treated with the diluted recombinant human IL-12, T1.01, T1.02, T1.03 and T1.12. After 2 hours of treatment, the cells were lysed and treated with a reagent (PerkinElmer) that detects p-STAT4 (phosphorylated STAT4). pSTAT4 was detected at an excitation wavelength of 680 nm and an emission wavelength of 615 nm with a spectrophotometer.

HEK-Blue IL-12 cells = test: Signaling ability in IL-12 recognizing cells (STAT4 inducible SEAP reporter); assay type: cell-based, human; settings: serial dilution from 4 nM, 24 hours, FIG. 18
Description: The HEK-Blue IL-12 cell line transformed with the IL-12 receptor gene and the STAT4 inducible SEAP reporter gene into HEK293 cells, which are human embryonic kidney fibroblasts, was obtained from Invivogen (San Diego, USA). The HEK-Blue IL-12 cells were maintained in DMEM (GIBCO) containing 10% FBS (GIBCO), 100 μg/ml Normocin and 1×HEK-Blue selection.
Specifically, the HEK-Blue IL-12 cell line, which is an IL-12 recognizing cell, was diluted to 2.8×10^5 cells/ml and dispensed at 180 μl/well. Recombinant human IL-12, T1.01m, T1.02m, T1.03m and T1.12m were suspended at 4 nM and diluted by serial dilution. HEK-Blue IL-12 cells were treated with the diluted recombinant human IL-12, T1.01m, T1.02m, T1.03m and T1.12m. After 24 hours of treatment, the cell supernatant was collected and mixed with QUANTI-Blue Solution (Invivogen) in a 96-well plate. The reporter expression level was measured at 620 nm using a spectrophotometer (Thermo Fisher).

## recombinant human IL-12: Recombinant human IL-12 used as comparator in signaling and IFN-γ secretion tests [reference compound]
Human T cells
  average IFN-γ in supernatant: 1,640 pg/ml
[1]
  EC50: 8.95 pM
HEK-Blue IL-12 cells
  IL-12 recognition / STAT4 reporter gene expression (620 nm absorbance): IL-12 was recognized, and STAT4 expressed a reporter gene by inducing phosphorylation
